From patent US20240124439A1, “Pyrido[2,3-D]Imidazole Derivatives and Their Use As Inhibitors of ITK for the Treatment of Skin Disease” (Pfizer Inc., priority 2020, published 2024)

Columns and labels:
[1] = target: IL-2-Inducible T-Cell Kinase (ITK) (Homo sapiens (Human), UniProt Q08881); assay: ITK enzyme assay (IL-2-inducible T-cell kinase activity); format: biochemical; conditions: geometric mean of count n
Experimental: ITK activity was determined by measuring the effect of a test compound in an ITK enzyme assay.
1.0 M HEPES Buffer pH 7.5 solution was prepared as follows: 238.3 g HEPES free acid (Sigma) and 800 mL of water were combined, and the mixture was stirred until complete dissolution. The pH was adjusted to 7.5 via titration with 5N NaOH and the volume adjusted to 1000 mL. The solution was filtered and sterilized.
ITK assay buffer was prepared as follows: 50 mL of HPLC-grade water was treated with 2 mL of 1.0 M HEPES Buffer, 500 μL of 2% Gelatin (Sigma), 1.0 mL of aqueous MgCl2 solution (1.0 M), and 1.0 mL of aqueous glutathione solution (0.5 M), and the solution was mixed. The solution was brought to 99 mL in a graduated cylinder by addition of water and sterilized through a 0.2 μm filter. 0.1 mL of Brij-35™ Surfact-Amps™ Detergent Solution (10% w/v aqueous solution, ThermoFisher) and 1.0 mL of ATP (Teknova,100 mM) were added and the solution was mixed.
Preparation of 1.33× ITK enzyme solution was as follows: 49.99 mL of ITK assay buffer was treated with 4.1 μL of ITK enzyme (ITK FL (N-Flag and C-His tagged, […]) Lake Pharma, 0.25 mg/ml in a buffer containing 25 mM Tris pH 7.8, 150 mM NaCl, 10% glycerol and 2 mM TCEP) and the mixture was gently agitated. The resulting solution was stored on ice. 30 Minutes prior to use, the enzyme solution was removed from ice and equilibrated to RT by incubation in a RT water bath.
Preparation of 4× ITK substrate solution was as follows: 50 mL of ITK assay buffer was treated with 100 μL of BTK peptide (China Peptide Company, 2 mM stock solution in DMSO). The tube was capped, mixed by gently inverting the tube, and then stored on ice. 30 Minutes prior to use, the substrate solution was removed from ice and equilibrated to RT by incubation in a RT water bath.
At the time of assay, 7.5 μL of the 1.33× ITK enzyme solution was added to plate wells containing 0.1 μL of varying concentrations of test compound in DMSO. The plate was incubated 30 min at RT. The plate wells were each treated with 2.5 uL of the 4× ITK substrate solution and the plate was sealed (TopSeal™, Perkin Elmer). The plate was spun at 1000 rpm for 30 sec and then incubated for 60 min at RT. The seal was removed, and each well was treated with 10 μL of Stop/Detect Buffer (20 mM HEPES pH 7.5, 0.01% gelatin, 1 nM LANCE PT66 (Perkin Elmer), 16.5 μg/ml Surelight APC (Perkin Elmer), 10 mM EDTA, 250 mM NaCl). The plate was again covered and was spun at 1000 rpm for […]. The plate was allowed to incubate overnight at RT and in a closed carrier to reduce dehydration. The seal was removed, and the fluorescence was read with a plate reader with an excitation wavelength of […]. The concentrations and resulting effect values for the tested compound were plotted and the concentration of compound required for 50% effect (IC50) was determined with the four-parameter logistic dose response equation.

[2] = test system: activated CD4+ human T-cells (IL-2); assay: IL-2 inhibition in supernatants from activated CD4+ human T-cells (cisbio HTRF); format: cell-based; conditions: T-cell; CD3/CD28-activated CD4+ human T cells, ImmunoCult stimulation 20 to 24 hrs; geometric mean of count n
Experimental: IL-2 inhibition activity in supernatants from activated CD4+ human T-cells was determined by measuring the effect of a test compound on the activity using the cisbio HTRF™ technology.
Human CD4+ T cells were activated with CD3/CD28 for 3 days and expanded for an additional 4-6 days (7 to 9 days total). On day 0, frozen CD4+ T cells were thawed, treated with CD3/CD28 Dynabeads, and incubated at 37° C./5% CO2. On day 3, the beads were removed, and the cells were diluted to 5×10^5 cells/cm^2, placed in G-Rex10 flask, and incubated at 37° C./5% CO2. On day 7 to day 9 the cells were removed from the G-Rex flasks, counted and diluted back to 1×10^6 cells/ml in standard tissue culture flask.
The expanded CD4+ T-cells were centrifuged at 300×g for 10 minutes and resuspended to 0.5 million cells per ml (30,000 cells/well). 60 μl of CD4+ T cells were added per well to a 384 well plate containing 0.1 μL of varying concentrations of test compound in DMSO. The plates were incubated for 15 min at 37° C./5% CO2. 20 μl of diluted ImmunoCult™ (STEMCELL Technologies, 1:12.5 in T cell assay media) were added to all wells of the plate (1:50 final assay concentration). The plates were incubated for an additional 20 to 24 hrs at 37° C./5% CO2. The plates were centrifuged at 300×g for 10 minutes. 16 μL of supernatant was removed and combined with 4 μl of IL-2 HTRF Abs. (cisbio kit). Plates were incubated for 3 hours at RT and read with an EnVision plate reader at 665 nm and 615 nm wavelengths. The concentrations and resulting effect values for the tested compound were plotted and the concentration of compound required for 50% effect (IC50) was determined with the four-parameter logistic dose response equation.

Sequence of IL-2-Inducible T-Cell Kinase (ITK) (Q08881 whole entry): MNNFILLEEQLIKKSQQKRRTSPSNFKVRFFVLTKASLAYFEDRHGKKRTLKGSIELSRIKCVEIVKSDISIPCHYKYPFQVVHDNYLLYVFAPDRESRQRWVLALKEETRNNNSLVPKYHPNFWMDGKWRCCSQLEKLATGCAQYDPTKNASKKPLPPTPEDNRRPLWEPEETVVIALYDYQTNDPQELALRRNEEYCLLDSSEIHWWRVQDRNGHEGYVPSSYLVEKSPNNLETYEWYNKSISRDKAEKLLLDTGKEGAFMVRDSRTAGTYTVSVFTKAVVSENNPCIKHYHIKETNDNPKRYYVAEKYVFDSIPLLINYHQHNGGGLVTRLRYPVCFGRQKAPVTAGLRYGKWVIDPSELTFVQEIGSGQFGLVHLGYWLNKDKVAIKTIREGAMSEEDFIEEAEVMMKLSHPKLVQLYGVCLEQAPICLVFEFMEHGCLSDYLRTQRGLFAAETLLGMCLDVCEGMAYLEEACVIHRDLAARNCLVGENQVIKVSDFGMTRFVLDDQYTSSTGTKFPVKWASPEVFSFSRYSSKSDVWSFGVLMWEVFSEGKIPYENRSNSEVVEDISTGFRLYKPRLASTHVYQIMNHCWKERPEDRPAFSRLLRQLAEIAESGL

IC50 [1] [nM]	IC50 [2] [nM]	Structure (SMILES)
27	247	CN(C(=O)CC1CCC1)c1cnc2nc(-c3n[nH]c4c3C[C@@H]3C[C@]3(C)C4)[nH]c2c1 [Example 77, 2-Cyclobutyl-N-methyl-N-(2-((4aS,5aR)-5a-methyl-1,4,4a,5,5a,6-hexahydrocyclopropa[f]indazol-3-yl)-1H-imidazo[4,5-b]pyridin-6-yl)acetamide]
421	908	CN(C(=O)C1(C)CCOCC1)c1cnc2[nH]c(-c3n[nH]c4c3CCC(C)(C)C4)nc2c1 [Example 109, N-(2-(6,6-Dimethyl-4,5,6,7-tetrahydro-1H-indazol-3-yl)-3H-imidazo[4,5-b]pyridin-6-yl)-N,4-dimethyltetrahydro-2H-pyran-4-carboxamide]
48	464	CN(C(=O)C1(F)CCCCC1)c1cnc2[nH]c(-c3n[nH]c4c3CCC(C)(C)C4)nc2c1 [Example 101, N-(2-(6,6-Dimethyl-4,5,6,7-tetrahydro-1H-indazol-3-yl)-3H-imidazo[4,5-b]pyridin-6-yl)-1-fluoro-N-methylcyclohexane-1-carboxamide]
554	1590	CN(C(=O)C1CCC(F)(F)CC1)c1cnc2[nH]c(-c3n[nH]c4c3CCC(C)(C)C4)nc2c1 [Example 110, N-(2-(6,6-Dimethyl-4,5,6,7-tetrahydro-1H-indazol-3-yl)-3H-imidazo[4,5-b]pyridin-6-yl)-4,4-difluoro-N-methylcyclohexane-1-carboxamide]
104	682	CN(C(=O)C1(C)CC(F)(F)C1)c1cnc2[nH]c(-c3n[nH]c4c3CCC(C)(C)C4)nc2c1 [Example 100, N-(2-(6,6-Dimethyl-4,5,6,7-tetrahydro-1H-indazol-3-yl)-3H-imidazo[4,5-b]pyridin-6-yl)-3,3-difluoro-N,1-dimethylcyclobutane-1-carboxamide]
243	727	C[C@@H](C(=O)N(C)c1cnc2[nH]c(-c3n[nH]c4c3C[C@@H]3C[C@]3(C)C4)nc2c1)N1CCCCC1 [Example 118, (S)-N-Methyl-N-(2-((4aS,5aR)-5a-methyl-1,4,4a,5,5a,6-hexahydrocyclopropa[f]indazol-3-yl)-3H-imidazo[4,5-b]pyridin-6-yl)-2-(piperidin-1-yl)propanamide]
50	311	CC(C)CCC(=O)N(C)c1cnc2nc(-c3n[nH]c4c3C[C@@H]3C[C@]3(C)C4)[nH]c2c1 [Example 74, N,4-Dimethyl-N-(2-((4aS,5aR)-5a-methyl-1,4,4a,5,5a,6-hexahydrocyclopropa[f]indazol-3-yl)-1H-imidazo[4,5-b]pyridin-6-yl)pentanamide]
51	389	CCC(C)CC(=O)N(C)c1cnc2nc(-c3n[nH]c4c3C[C@@H]3C[C@]3(C)C4)[nH]c2c1 (stereo partly drawn) [Example 76, N,3-Dimethyl-N-(2-((4aS,5aR)-5a-methyl-1,4,4a,5,5a,6-hexahydrocyclopropa[f]indazol-3-yl)-1H-imidazo[4,5-b]pyridin-6-yl)pentanamide]

Second part, the molecule before the results:

Structure (SMILES)	IC50 [1] [nM]	IC50 [2] [nM]
C[C@H](C(=O)N(C)c1cnc2[nH]c(-c3n[nH]c4c3C[C@@H]3C[C@]3(C)C4)nc2c1)N1CC2CC(C1)O2 (single isomer, unassigned) [Example 42]	21	143
CCCC(=O)N(C)c1cnc2nc(-c3n[nH]c4c3C[C@@H]3C[C@]3(C)C4)[nH]c2c1 [Example 71, N-Methyl-N-(2-((4aS,5aR)-5a-methyl-1,4,4a,5,5a,6-hexahydrocyclopropa[f]indazol-3-yl)-1H-imidazo[4,5-b]pyridin-6-yl)butyramide]	42	313
CN(C(=O)Cn1cccn1)c1cnc2nc(-c3n[nH]c4c3C[C@@H]3C[C@]3(C)C4)[nH]c2c1 [Example 6, N-Methyl-N-(2-((4aS,5aR)-5a-methyl-1,4,4a,5,5a,6-hexahydrocyclopropa[f]indazol-3-yl)-1H-imidazo[4,5-b]pyridin-6-yl)-2-(1H-pyrazol-1-yl)acetamide]	26	343
CN(C(=O)[C@@H](F)C1CCOCC1)c1cnc2nc(-c3n[nH]c4c3C[C@@H]3C[C@]3(C)C4)[nH]c2c1 [Example 13, (S)-2-Fluoro-N-methyl-N-(2-((4aS,5aR)-5a-methyl-1,4,4a,5,5a,6-hexahydrocyclopropa[f]indazol-3-yl)-1H-imidazo[4,5-b]pyridin-6-yl)-2-(tetrahydro-2H-pyran-4-yl)acetamide]	102	559
CCC1(C(=O)N(C)c2cnc3nc(-c4n[nH]c5c4C[C@@H]4C[C@]4(C)C5)[nH]c3c2)CCOCC1 [Example 65, 4-Ethyl-N-methyl-N-(2-((4aS,5aR)-5a-methyl-1,4,4a,5,5a,6-hexahydrocyclopropa[f]indazol-3-yl)-1H-imidazo[4,5-b]pyridin-6-yl)tetrahydro-2H-pyran-4-carboxamide]	150	568
CN(C(=O)C1(C)CC(F)(F)C1)c1cnc2nc(-c3n[nH]c4c3C[C@@H]3C[C@]3(C)C4)[nH]c2c1 [Example 66, 3,3-Difluoro-N,1-dimethyl-N-(2-((4aS,5aR)-5a-methyl-1,4,4a,5,5a,6-hexahydrocyclopropa[f]indazol-3-yl)-1H-imidazo[4,5-b]pyridin-6-yl)cyclobutane-1-carboxamide]	92	292
CN(C(=O)C(F)(F)C1CCOCC1)c1cnc2nc(-c3n[nH]c4c3CCC(C)(C)C4)[nH]c2c1 [Example 5, N-(2-(6,6-Dimethyl-4,5,6,7-tetrahydro-1H-indazol-3-yl)-1H-imidazo[4,5-b]pyridin-6-yl)-2,2-difluoro-N-methyl-2-(tetrahydro-2H-pyran-4-yl)acetamide]	14	375
CN(C(=O)C12CC(F)(C1)C2)c1cnc2nc(-c3n[nH]c4c3C[C@@H]3C[C@]3(C)C4)[nH]c2c1 [Example 59]	109	370
CN(C(=O)CN1CCOCC1=O)c1cnc2nc(-c3n[nH]c4c3C[C@@H]3C[C@]3(C)C4)[nH]c2c1 [Example 56, N-Methyl-N-(2-((4aS,5aR)-5a-methyl-1,4,4a,5,5a,6-hexahydrocyclopropa[f]indazol-3-yl)-1H-imidazo[4,5-b]pyridin-6-yl)-2-(3-oxomorpholino)acetamide]	54	611
CC(C)CC(=O)N(C)c1cnc2nc(-c3n[nH]c4c3C[C@@H]3C[C@]3(C)C4)[nH]c2c1 [Example 72, N,3-Dimethyl-N-(2-((4aS,5aR)-5a-methyl-1,4,4a,5,5a,6-hexahydrocyclopropa[f]indazol-3-yl)-1H-imidazo[4,5-b]pyridin-6-yl)butanamide]	39	248
